Consider three compounds from article PMC5859250, “Contribution of transformation products towards the total herbicide toxicity to tropical marine organisms” (Scientific Reports, 2018).

≈ marks a conversion by molar mass, not a printed value. Bounds are passed on as bounds.

What is called IC10 is the concentration at which the effect reaches the 10% level.

The subject of one data set is Navicula sp. Also on record: method as in PMID 20800855. As to conditions: cited from earlier work.
The test system of data set [1] is Phaeodactylum tricornutum. Also on record: method as in PMID 20800855. As to conditions: cited from earlier work.
A short description of data set [2]: Herbicide degradation in outdoor tanks with coastal seawater and sediment (330 d). Conditions: day 330, in tank of the parent herbicide, measured or estimated. In kind it is physicochemical. The source says:
Photosystem II herbicides/transformation product solutions were produced by adding herbicides to seawater within separate 120 l outdoor fibreglass tanks, in the presence of natural coastal sediments (further details can be found in Mercurio 2016)[36]. […] The tanks used were previously described in Mercurio et al.[8], with treatment water being partially shaded (70%) and exposed to a maximum of 700 µmol photons m^−2s^−1 over the course of the experiment. The application of a natural diurnal light regime and coastal sediment were previously shown to increase the rates of PSII herbicide degradation and represent more natural conditions than those used in standard degradation tests[8],[36]. Evaporation was minimised with loose-fitting clear acrylic lids and the water continuously circulated using Turbelle Nanostream pumps. Prior to every sampling period evaporation losses were replenished with equal volumes of MilliQ water. The average temperature was 25.7 °C with a range of 15.6–36.6 °C over the course of the study. Unfiltered coastal seawater and sediments were collected from the intertidal zone adjacent to the Australian Institute of Marine Science (19°16′S, 147°03′E), Cape Cleveland, QLD. The sediments were prepared one week prior to use by sieving (>2 mm removed) and thorough mixing. Each tank contained 5 kg of sediment. Physical and chemical information on the seawater and sediments used the treatments can be found in SOM Table 1.
The 20 tanks included replicates for control seawater (n = 4) and the PSII herbicides diuron (n = 4), atrazine (n = 3), simazine (n = 3), hexazinone (n = 3), and ametryn (n = 3). Herbicide treatments and replicates were randomized among tanks. The herbicides were purchased from Sigma Aldrich (>95% purity) and were introduced at ~1 mg l^−1 to enable direct chemical and toxicological testing of the herbicide transformation product mixtures without additional concentration steps. […] The same concentration was used in the controls. Sample collection, internal standard addition, and analytical techniques (HPLC-MS/MS using an AB/Sciex API5500Q mass spectrometer equipped with an electrospray interface and coupled to a Shimadzu Prominence HPLC system) were as previously reported[7],[36]. […] Individual replicates were analysed using HPLC/TripleTOF mass spectrometry for possible transformation products as described in Mercurio 2016[36]. Briefly, 0.2 µm-filtered samples were directly injected into an ABSciex API5600+ Triple TOF mass spectrometer (ABSciex, Concord, Ontario, Canada) equipped with an electrospray (TurboV) interface coupled to a Shimadzu Nexera HPLC system (Shimadzu Corp., Kyoto, Japan). Separation was achieved using a 4 micron 50 × 2.0 mm Phenomenex Synergi Fusion RP column (Phenomenex, Torrance, CA) run at 45 °C, and a flow rate of 0.4 mL min^−1 with a linear gradient starting at 8% B for 0.5 minutes, ramped to 100% B in 8 minutes then held at 100% for 2.0 minutes followed by equilibration at 8% B for 2.5 minutes (A = 1% methanol in HPLC grade water, B = 95% methanol in HPLC grade water, both containing 0.1% acetic acid). The mass spectrometer was operated in positive ion SWATH mode. Briefly this mode comprises a TOF scan of 50 millisecond duration followed by small segments of the mass range being transmitted through the quadrupole, fragmented in the collision cell and full TOF mass spectra taken of the transformation products. Data from these experiments was examined using the Masterview software (ABSciex).
Potential transformation products identified using TOF mass spectrometry and other potential transformation products identified from literature were then re-examined by HPLC/ triple quadrupole mass spectrometry using multiple reaction monitoring. Product ions used were as identified from QTOF data or from literature references and parameters such as collision energy optimised by repeated injections of samples for compounds detected. […]

For the next data set, the system named is Cylindrotheca closterium. Also on record: method as in PMID 20800855. Conditions: cited from earlier work.
A further data set relates to Nephroselmis pyriformis. Also on record: method as in PMID 20800855. Conditions: cited from earlier work.
A further data set concerns Diporeia spp. Also on record: method as in PMID 19533344. Conditions: cited from earlier work.
The subject of the next data set is Hyalella azteca. Further details: method as in PMID 19533344. Conditions: cited from earlier work.
Another data set deals with Brachionus plicatilis. Further details: method as in PMID 1722733. As to conditions: cited from earlier work.
The next data set deals with Brachionus calyciflorus. Further details: method as in PMID 1722733. As to conditions: cited from earlier work.

In the case of `CC(C)Nc1nc(N)nc(Cl)n1` [DEA, desethylatrazine], the IC10 in the data set on Navicula sp. was 0.111 µg/mL (≈ 0.592 µM); in data set [1], 0.046 µg/mL (≈ 0.245 µM); in the data set with Cylindrotheca closterium it was 0.102 µg/mL (≈ 0.544 µM); in the data set with Nephroselmis pyriformis it was 0.0266 µg/mL (≈ 0.142 µM). Also, the Transformation product concentration in data set [2] was 36 µg/L.
As to `CCNc1nc(N)nc(Cl)n1` [DIA, desisopropylatrazine], the “96-hour LC50” value with Diporeia spp. and in the data set with Hyalella azteca was more than 3 µg/mL each time. The Transformation product concentration in data set [2] (listed as Desisopropyl Atrazine) is 5.1 µg/L.
For the compound `Nc1ccc(Cl)c(Cl)c1` [3,4-DCA, 3,4-dichloroaniline], in data set [2], the Transformation product concentration is 2.1 µg/L. Also, the LC50 in the data set with Brachionus plicatilis and in the data set with Brachionus calyciflorus was ~ 60 mg l^−1 throughout.
